Results reported in patent US10562878B2, “Cycloalkylamines as monoamine reuptake inhibitors” (Sunovion Pharmaceuticals Inc., priority 2006, dated 2020).
Where a name gives a salt, the structure may show the parent alone. Read-outs that look alike come from different tables or passages of the source.

Key:
[1] = molecular target: T1, Norepinephrine Transporter (NET) sites in mouse brain (Mus musculus (Mouse), UniProt O55192); conditions: mice, 60 min after treatment
mice [2] = test: Mouse tail suspension test; type: in vivo
[3] = molecular target: DA Transporter (DAT) sites in mouse brain (Mus musculus (Mouse), UniProt Q61327); test: Ex vivo [3H] WIN 35428 binding to DAT sites in mouse brain after oral dosing; conditions: mice, 60 min after treatment
Rats = test: Rat forced swim test; type: in vivo
[4] = molecular target: 5-HT Transporter (SERT) sites in mouse brain (Mus musculus (Mouse), UniProt Q60857); test: Ex vivo [3H] citalopram binding to SERT sites in mouse brain after oral dosing; conditions: mice, 60 min after treatment
[5] = molecular target: T1, Norepinephrine Transporter (NET) sites in mouse brain; test: in vivo; conditions: po, read-out: NET % Transporter Occupancy
[6] = molecular target: rat dopamine reuptake transporter (Rattus norvegicus (Rat), UniProt P23977); test: Dopamine functional uptake assay, rat striatal synaptosomes; type: biochemical; conditions: read-out: rDAT IC50
[7] = molecular target: human serotonin transporter (Homo sapiens (Human), UniProt P31645); test: Serotonin functional uptake assay, recombinant human transporter in HEK-293 cells; type: cell-based; conditions: Human serotonin transporter uptake; read-out: hSERT IC50
[8] = molecular target: human dopamine transporter (Homo sapiens (Human), UniProt Q01959); test: Dopamine functional uptake assay, recombinant human transporter in CHO-K1 or HEK293 cells; type: cell-based; conditions: read-out: hDAT IC50
[9] = molecular target: rat serotonin (5-HT) reuptake transporter (Rattus norvegicus (Rat), UniProt P31652); test: Serotonin functional uptake assay, rat synaptosomes; type: biochemical; conditions: read-out: rSERT IC50
[10] = in vivo; cited from earlier work
mice [11] = test: Mouse locomotor activity; type: in vivo

Sequence of human dopamine transporter (Q01959 whole entry): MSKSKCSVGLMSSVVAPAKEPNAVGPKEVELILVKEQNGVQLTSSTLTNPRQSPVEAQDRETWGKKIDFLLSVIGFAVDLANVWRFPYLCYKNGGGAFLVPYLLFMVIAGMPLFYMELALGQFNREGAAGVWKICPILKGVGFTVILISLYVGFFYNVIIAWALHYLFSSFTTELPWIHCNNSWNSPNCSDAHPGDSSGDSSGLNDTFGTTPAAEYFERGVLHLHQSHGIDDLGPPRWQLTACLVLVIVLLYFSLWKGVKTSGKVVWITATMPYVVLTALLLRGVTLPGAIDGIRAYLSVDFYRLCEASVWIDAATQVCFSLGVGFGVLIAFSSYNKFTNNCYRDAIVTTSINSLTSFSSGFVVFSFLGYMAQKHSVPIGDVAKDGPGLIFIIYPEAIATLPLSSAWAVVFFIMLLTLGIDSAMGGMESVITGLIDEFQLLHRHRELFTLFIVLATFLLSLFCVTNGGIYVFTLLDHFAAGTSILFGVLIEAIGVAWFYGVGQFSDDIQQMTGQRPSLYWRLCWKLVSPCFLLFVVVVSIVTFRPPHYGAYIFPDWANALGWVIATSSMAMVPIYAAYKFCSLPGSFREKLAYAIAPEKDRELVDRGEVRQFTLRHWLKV
Sequence of human serotonin transporter (P31645 whole entry): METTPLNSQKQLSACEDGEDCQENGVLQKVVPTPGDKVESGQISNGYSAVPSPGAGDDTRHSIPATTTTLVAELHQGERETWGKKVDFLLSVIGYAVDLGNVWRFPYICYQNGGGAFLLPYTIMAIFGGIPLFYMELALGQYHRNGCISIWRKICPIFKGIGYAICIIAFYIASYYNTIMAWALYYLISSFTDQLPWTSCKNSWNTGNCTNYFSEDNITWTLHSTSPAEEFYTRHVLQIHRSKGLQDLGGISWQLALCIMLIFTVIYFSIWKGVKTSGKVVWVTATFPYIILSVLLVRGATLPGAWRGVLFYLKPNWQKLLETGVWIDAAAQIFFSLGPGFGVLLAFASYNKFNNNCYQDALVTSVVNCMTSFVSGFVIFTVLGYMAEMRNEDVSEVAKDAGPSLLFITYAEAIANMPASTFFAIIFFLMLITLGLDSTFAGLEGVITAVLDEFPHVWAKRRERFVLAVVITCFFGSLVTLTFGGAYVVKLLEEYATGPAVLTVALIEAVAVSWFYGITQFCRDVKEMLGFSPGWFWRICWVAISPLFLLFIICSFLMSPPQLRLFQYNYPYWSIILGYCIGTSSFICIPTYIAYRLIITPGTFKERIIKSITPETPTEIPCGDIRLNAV

Structure (SMILES)	NET Mean Specific Binding ± S.E.M. ([1]; 1 mg/kg PO) [dpm]	NET Mean Specific Binding ± S.E.M. ([1]; 3 mg/kg PO) [dpm]	NET Mean Specific Binding ± S.E.M. ([1]; 10 mg/kg PO) [dpm]	NET Mean Specific Binding ± S.E.M. ([1]; 30 mg/kg PO) [dpm]	Mouse Tail Suspension Mean Immobility Time ± S.E.M. (mice [2]; 10 mg/kg PO)	Mouse Tail Suspension Mean Immobility Time ± S.E.M. (mice [2]; 30 mg/kg PO)	DAT Mean Specific Binding ± S.E.M. ([3]; 1 mg/kg PO) [dpm]	DAT Mean Specific Binding ± S.E.M. ([3]; 3 mg/kg PO) [dpm]	DAT Mean Specific Binding ± S.E.M. ([3]; 10 mg/kg PO) [dpm]	DAT Mean Specific Binding ± S.E.M. ([3]; 30 mg/kg PO) [dpm]	Rat Forced Swim Climbing (Means ± S.E.M.) (Rats; 3 mg/kg PO)	Rat Forced Swim Immobility (Means ± S.E.M.) (Rats; 3 mg/kg PO)	Rat Forced Swim Swimming (Means ± S.E.M.) (Rats; 3 mg/kg PO)	Rat Forced Swim Climbing (Means ± S.E.M.) (Rats; 10 mg/kg PO)	Rat Forced Swim Immobility (Means ± S.E.M.) (Rats; 10 mg/kg PO)	Rat Forced Swim Swimming (Means ± S.E.M.) (Rats; 10 mg/kg PO)	Rat Forced Swim Climbing (Means ± S.E.M.) (Rats; 30 mg/kg PO)	Rat Forced Swim Immobility (Means ± S.E.M.) (Rats; 30 mg/kg PO)	Rat Forced Swim Swimming (Means ± S.E.M.) (Rats; 30 mg/kg PO)	IC50 [8] [nM]	also measured
CN[C@H](C)C1(c2ccc(Cl)c(Cl)c2)CCCCC1 (stereo in doubt) [48 E1, 1-(1-(3,4-dichlorophenyl)cyclohexyl)-N-methylethanamine hydrochloride]	2111 ± 119	1911 ± 144	954 ± 115	346 ± 55	174.1 ± 5.8	134.5 ± 9.6	20656 ± 1531	18039 ± 1265	9792 ± 977	3173 ± 541	7.1 ± 0.6	49.6 ± 1.5	3.7 ± 1.0	17.9 ± 2.5	35.6 ± 3.5	6.5 ± 1.6	20.6 ± 2.9	26.9 ± 4.4	9.7 ± 1.7	–	receptor occupancy at 1 mg/kg ([3]; mouse, 1 mg/kg PO): -1%; receptor occupancy at 3 mg/kg ([3]; mouse, 3 mg/kg PO): 11%; receptor occupancy at 10 mg/kg ([3]; mouse, 10 mg/kg PO): 52%; receptor occupancy at 30 mg/kg ([3]; mouse, 30 mg/kg PO): 84%; receptor occupancy at 1 mg/kg ([4]; mouse, 1 mg/kg PO): -1%; receptor occupancy at 1 mg/kg [5]: 12%; receptor occupancy at 3 mg/kg [5]: 21%; receptor occupancy at 10 mg/kg [5]: 60%; receptor occupancy at 30 mg/kg [5]: 86%
CN(C)C[C@]1(c2ccc(Cl)c(Cl)c2)CC[C@H](O)CC1 [Compound 288, (1s,4s)-4-(3,4-dichlorophenyl)-4-((dimethylamino)methyl)-cyclohexanol]	–	–	–	–	–	–	–	–	–	–	–	–	–	–	–	–	–	–	–	22	IC50 [6]: 370 nM; IC50 [7]: 84 nM; IC50 [9]: 67 nM
Clc1ccc(C23CNCC2C3)cc1Cl (single isomer, unassigned) [DOV 21,947, H-1-(3,4-dichlorophenyl)-3-azabicyclo[3.1.0]hexane]	–	–	–	–	–	–	–	–	–	–	–	–	–	–	–	–	–	–	–	–	immobility in the tail suspension test [10]: dose-dependent reduction in immobility
CNC(C)C1(c2ccc(Cl)c(Cl)c2)CCCCC1 (single isomer, unassigned) [44 E1, 1-(1-(3,4-dichlorophenyl)cyclohexyl)-N-methylethanamine]	–	–	–	–	–	120.4 ± 9.0	–	–	–	–	–	–	–	–	–	–	–	–	–	–	Mouse Locomotor Activity Total Distance Traveled ± S.E.M. (mice [11]; 30 mg/kg PO): 402.3 ± 71.0
CN(C)C[C@]1(c2ccc3ccccc3c2)CC[C@](C)(O)CC1 [Compound 225, (1s,4s)-4-((dimethylamino)methyl)-1-methyl-4-(naphthalen-2-yl)cyclohexanol]	1170 ± 68	813 ± 64	393 ± 21	230 ± 33	137.8 ± 5.2	136.3 ± 2.5	19787 ± 3338	21666 ± 3698	18872 ± 2775	14618 ± 1209	8.4 ± 1.7	50.8 ± 1.8	0.8 ± 0.3	11.1 ± 2.7	47.6 ± 3.0	1.2 ± 0.6	25.0 ± 4.6	33.4 ± 4.8	1.1 ± 0.5	167	SERT Mean Specific Binding ± S.E.M. ([4]; 1 mg/kg PO): 3842 ± 152 dpm; SERT Mean Specific Binding ± S.E.M. ([4]; 3 mg/kg PO): 2118 ± 139 dpm; SERT Mean Specific Binding ± S.E.M. ([4]; 10 mg/kg PO): 904 ± 35 dpm; SERT Mean Specific Binding ± S.E.M. ([4]; 30 mg/kg PO): 414 ± 37 dpm; Mouse Locomotor Activity Total Distance Traveled ± S.E.M. (mice [11]; 0.3 mg/kg PO): 519.5 ± 56.4; Mouse Locomotor Activity Total Distance Traveled ± S.E.M. (mice [11]; 1 mg/kg PO): 423.4 ± 62.3
CNCC1(c2ccc(Cl)c(Cl)c2)CCCCC1 [Compound 75, 1-(1-(3,4-dichlorophenyl)cyclohexyl)-N-methylmethanamine (hydrochloride)]	–	–	–	–	177.7 ± 5.8	143.5 ± 5.8	–	–	–	–	–	–	–	–	–	–	–	–	–	–	Mouse Tail Suspension Mean Immobility Time ± S.E.M. (mice [2]; 3 mg/kg PO): 187.8 ± 9.6; Mouse Locomotor Activity Total Distance Traveled ± S.E.M. (mice [11]; 3 mg/kg PO): 653.5 ± 48.4; Mouse Locomotor Activity Total Distance Traveled ± S.E.M. (mice [11]; 10 mg/kg PO): 608.8 ± 83.4; Mouse Locomotor Activity Total Distance Traveled ± S.E.M. (mice [11]; 30 mg/kg PO): 655.3 ± 117.7
